Test results: patent US6989371B1, “Bombesin analogs for treatment of cancer” (Dabur Research Foundation, priority 1996, dated 2006)
Non-standard residues stand in square brackets, D forms with d. Residues, ends and D or L forms follow the SMILES beside them. Ac5c = NC1(C(=O)O)CCCC1; Deg = CCC(N)(CC)C(=O)O

How the values were obtained:
Test in all cases: MTT cytotoxicity assay, 48 hours (Example 14)
HBL 100 (Breast) = assay type: cell-based, human
Experimental: (§1) The cytotoxic effect of peptide sequences SEQ ID NO: 9, SEQ ID NO: 10, SEQ ID NO: 11 and SEQ ID NO: 12, were studied by MTT assay which is based on the principle of uptake of MTT[3-[4,5-dimethylthiazol-2-yl]-2,5-diphenyl tetrazolium bromide], a tetrazolium salt by the metabolically active cells where it is metabolized by active mitochondria into a blue colored formazan product which can be read spectrophotometrically. Tumor cells KB (oral squamous). HuTu80 (Stomach), PTC and SW620 (colon), U87MG (Glioblastoma), HBL 100. (Breast), HeP2 (laryngeal) and L132 (Lung) were incubated with the peptide analogs for 48 hours at 37° C. in a 96-well culture plate, followed by the addition of 100 μl MTT and further incubation of 1 hour. The formazon crystals formed inside the cells were dissolved with a detergent comprising 10% Sodium dodecyl sulfate and 0.01 N HCl and optical density read on a multiscan ELISA reader. The optical density was directly proportional to the number of proliferating and metabolically active cells.

KB (oral squamous) = assay type: cell-based, human
Experimental: as §1

SW620 (colon) = assay type: cell-based, human
Experimental: as §1

HuTu80 (Stomach) = assay type: cell-based, human
Experimental: as §1

PTC (colon) = assay type: cell-based, human
Experimental: as §1

HeP2 (laryngeal) = assay type: cell-based
Experimental: as §1

U87MG (Glioblastoma) = assay type: cell-based
Experimental: as §1

L132 (Lung) = assay type: cell-based
Experimental: as §1

## CCC(CC)(NC(=O)[C@H](Cc1c[nH]c2ccccc12)NC(=O)[C@H](CCC(N)=O)NC(=O)[C@H](N)Cc1ccccc1)C(=O)N[C@H](C(=O)NCC(=O)N[C@@H](Cc1c[nH]cn1)C(=O)N[C@@H](CC(C)C)C(N)=O)C(C)C [SEQ ID: 9, D-Phe-Gln-Trp-Deg-Val-Gly-His-Leu-NH2] (H-[dF]QW[Deg]VGHL-NH2; N-terminus assumed)
HBL 100 (Breast); HBL100, 10 pM
  Percentage cytotoxicity: 17.2 ± 0.1%
HBL 100 (Breast); HBL100, 100 pM
  Percentage cytotoxicity: 28.6 ± 2.2%
HBL 100 (Breast); HBL100, 1 nM
  Percentage cytotoxicity: 34.1 ± 1.8%
HBL 100 (Breast); HBL100, 10 nM
  Percentage cytotoxicity: 28.1 ± 0.6%
HBL 100 (Breast); HBL100, 100 nM
  Percentage cytotoxicity: 22.4 ± 1.7%
HBL 100 (Breast); HBL100, 1 μM
  Percentage cytotoxicity: 17.2 ± 0.4%
KB (oral squamous); 10 pM
  Percentage cytotoxicity: 20.6 ± 4.1%
KB (oral squamous); 100 pM
  Percentage cytotoxicity: 26.9 ± 2.9%
KB (oral squamous); 1 nM
  Percentage cytotoxicity: 32.6 ± 3.7%
KB (oral squamous); 10 nM
  Percentage cytotoxicity: 23.0 ± 2.1%
KB (oral squamous); 100 nM
  Percentage cytotoxicity: 20.8 ± 1.7%
KB (oral squamous); 1 μM
  Percentage cytotoxicity: 10.4 ± 1.6%
SW620 (colon); SW620, 10 pM
  Percentage cytotoxicity: 15.1 ± 0.3%
SW620 (colon); SW620, 100 pM
  Percentage cytotoxicity: 28.9 ± 0.2%
SW620 (colon); SW620, 1 nM
  Percentage cytotoxicity: 30.8 ± 0.6%
SW620 (colon); SW620, 10 nM
  Percentage cytotoxicity: 33.2 ± 2.9%
SW620 (colon); SW620, 100 nM
  Percentage cytotoxicity: 25.8 ± 2.8%
SW620 (colon); SW620, 1 μM
  Percentage cytotoxicity: 21.6 ± 2.1%
HuTu80 (Stomach); HuTu80, 10 pM
  Percentage cytotoxicity: 19.5 ± 0.4%
HuTu80 (Stomach); HuTu80, 100 pM
  Percentage cytotoxicity: 23.8 ± 2.8%
HuTu80 (Stomach); HuTu80, 1 nM
  Percentage cytotoxicity: 28.0 ± 1.8%
HuTu80 (Stomach); HuTu80, 10 nM
  Percentage cytotoxicity: 23.5 ± 2.9%
HuTu80 (Stomach); HuTu80, 100 nM
  Percentage cytotoxicity: 13.5 ± 2.1%
HuTu80 (Stomach); HuTu80, 1 μM
  Percentage cytotoxicity: 14.2 ± 0.6%
PTC (colon); 10 pM
  Percentage cytotoxicity: 22.4 ± 2.2%
PTC (colon); 100 pM
  Percentage cytotoxicity: 24.5 ± 3.9%
PTC (colon); 1 nM
  Percentage cytotoxicity: 25.6 ± 5.1%
PTC (colon); 10 nM
  Percentage cytotoxicity: 26.8 ± 3.8%
PTC (colon); 100 nM
  Percentage cytotoxicity: 19.5 ± 4.1%
PTC (colon); 1 μM
  Percentage cytotoxicity: 10.3 ± 0.9%
HeP2 (laryngeal); HeP2, 10 pM
  Percentage cytotoxicity: 0.0 ± 0.0%
HeP2 (laryngeal); HeP2, 100 pM
  Percentage cytotoxicity: 14.6 ± 0.6%
HeP2 (laryngeal); HeP2, 1 nM
  Percentage cytotoxicity: 21.3 ± 2.2%
HeP2 (laryngeal); HeP2, 10 nM
  Percentage cytotoxicity: 28.5 ± 3.1%
HeP2 (laryngeal); HeP2, 100 nM
  Percentage cytotoxicity: 17.8 ± 0.3%
HeP2 (laryngeal); HeP2, 1 μM
  Percentage cytotoxicity: 21.6 ± 1.8%
U87MG (Glioblastoma); 10 pM
  Percentage cytotoxicity: 0.0 ± 0.0%
U87MG (Glioblastoma); 100 pM
  Percentage cytotoxicity: 11.9 ± 4.1%
U87MG (Glioblastoma); 1 nM
  Percentage cytotoxicity: 21.8 ± 0.1%
U87MG (Glioblastoma); 10 nM
  Percentage cytotoxicity: 20.0 ± 0.0%
U87MG (Glioblastoma); 100 nM
  Percentage cytotoxicity: 21.4 ± 0.1%
U87MG (Glioblastoma); 1 μM
  Percentage cytotoxicity: 10.0 ± 0.0%
L132 (Lung); L132, 10 pM
  Percentage cytotoxicity: 0.0 ± 0.0%
L132 (Lung); L132, 100 pM
  Percentage cytotoxicity: 22.4 ± 0.8%
L132 (Lung); L132, 1 nM
  Percentage cytotoxicity: 30.5 ± 4.1%
L132 (Lung); L132, 10 nM
  Percentage cytotoxicity: 27.2 ± 3.1%
L132 (Lung); L132, 100 nM
  Percentage cytotoxicity: 25.9 ± 2.6%
L132 (Lung); L132, 1 μM
  Percentage cytotoxicity: 18.3 ± 2.9%

## CC(C)C[C@H](NC(=O)[C@H](Cc1c[nH]cn1)NC(=O)C1(NC(=O)[C@@H](NC(=O)[C@H](C)NC(=O)[C@H](Cc2c[nH]c3ccccc23)NC(=O)[C@H](CCC(N)=O)NC(=O)[C@H](N)Cc2ccccc2)C(C)C)CCCC1)C(N)=O [SEQ ID: 10, D-Phe-Gln-Trp-Ala-Val-Ac5c-His-Leu-NH2] (H-[dF]QWAV[Ac5c]HL-NH2; N-terminus assumed)
HBL 100 (Breast); HBL100, 10 pM
  Percentage cytotoxicity: 21.1 ± 0.7%
HBL 100 (Breast); HBL100, 100 pM
  Percentage cytotoxicity: 16.6 ± 0.1%
HBL 100 (Breast); HBL100, 1 nM
  Percentage cytotoxicity: 23.3 ± 1.6%
HBL 100 (Breast); HBL100, 10 nM
  Percentage cytotoxicity: 32.9 ± 0.7%
HBL 100 (Breast); HBL100, 100 nM
  Percentage cytotoxicity: 21.2 ± 1.7%
HBL 100 (Breast); HBL100, 1 μM
  Percentage cytotoxicity: 18.5 ± 1.7%
KB (oral squamous); 10 pM
  Percentage cytotoxicity: 19.2 ± 2.9%
KB (oral squamous); 100 pM
  Percentage cytotoxicity: 25.0 ± 6.3%
KB (oral squamous); 1 nM
  Percentage cytotoxicity: 31.1 ± 4.1%
KB (oral squamous); 10 nM
  Percentage cytotoxicity: 27.3 ± 2.7%
KB (oral squamous); 100 nM
  Percentage cytotoxicity: 22.0 ± 1.1%
KB (oral squamous); 1 μM
  Percentage cytotoxicity: 16.5 ± 0.2%
SW620 (colon); SW620, 10 pM
  Percentage cytotoxicity: 16.7 ± 0.2%
SW620 (colon); SW620, 100 pM
  Percentage cytotoxicity: 20.9 ± 0.6%
SW620 (colon); SW620, 1 nM
  Percentage cytotoxicity: 22.4 ± 1.7%
SW620 (colon); SW620, 10 nM
  Percentage cytotoxicity: 25.5 ± 2.8%
SW620 (colon); SW620, 100 nM
  Percentage cytotoxicity: 19.4 ± 1.8%
SW620 (colon); SW620, 1 μM
  Percentage cytotoxicity: 22.2 ± 2.1%
HuTu80 (Stomach); HuTu80, 10 pM
  Percentage cytotoxicity: 13.5 ± 0.8%
HuTu80 (Stomach); HuTu80, 100 pM
  Percentage cytotoxicity: 22.9 ± 0.2%
HuTu80 (Stomach); HuTu80, 1 nM
  Percentage cytotoxicity: 23.3 ± 2.8%
HuTu80 (Stomach); HuTu80, 10 nM
  Percentage cytotoxicity: 20.6 ± 1.7%
HuTu80 (Stomach); HuTu80, 100 nM
  Percentage cytotoxicity: 21.0 ± 2.0%
HuTu80 (Stomach); HuTu80, 1 μM
  Percentage cytotoxicity: 17.2 ± 1.1%
PTC (colon); 10 pM
  Percentage cytotoxicity: 22.2 ± 4.9%
PTC (colon); 100 pM
  Percentage cytotoxicity: 21.6 ± 3.1%
PTC (colon); 1 nM
  Percentage cytotoxicity: 29.4 ± 2.9%
PTC (colon); 10 nM
  Percentage cytotoxicity: 32.5 ± 5.1%
PTC (colon); 100 nM
  Percentage cytotoxicity: 29.3 ± 3.2%
PTC (colon); 1 μM
  Percentage cytotoxicity: 28.4 ± 3.6%
HeP2 (laryngeal); HeP2, 10 pM
  Percentage cytotoxicity: 1.7 ± 0.1%
HeP2 (laryngeal); HeP2, 100 pM
  Percentage cytotoxicity: 19.1 ± 0.6%
HeP2 (laryngeal); HeP2, 1 nM
  Percentage cytotoxicity: 27.2 ± 2.6%
HeP2 (laryngeal); HeP2, 10 nM
  Percentage cytotoxicity: 27.5 ± 2.8%
HeP2 (laryngeal); HeP2, 100 nM
  Percentage cytotoxicity: 26.3 ± 1.7%
HeP2 (laryngeal); HeP2, 1 μM
  Percentage cytotoxicity: 19.9 ± 1.5%
U87MG (Glioblastoma); 10 pM
  Percentage cytotoxicity: 11.6 ± 1.7%
U87MG (Glioblastoma); 100 pM
  Percentage cytotoxicity: 16.5 ± 0.5%
U87MG (Glioblastoma); 1 nM
  Percentage cytotoxicity: 25.6 ± 2.1%
U87MG (Glioblastoma); 10 nM
  Percentage cytotoxicity: 20.0 ± 0.0%
U87MG (Glioblastoma); 100 nM
  Percentage cytotoxicity: 15.0 ± 0.5%
U87MG (Glioblastoma); 1 μM
  Percentage cytotoxicity: 10.0 ± 0.0%
L132 (Lung); L132, 10 pM
  Percentage cytotoxicity: 1.9 ± 0.2%
L132 (Lung); L132, 100 pM
  Percentage cytotoxicity: 29.4 ± 1.9%
L132 (Lung); L132, 1 nM
  Percentage cytotoxicity: 29.5 ± 2.8%
L132 (Lung); L132, 10 nM
  Percentage cytotoxicity: 27.5 ± 2.8%
L132 (Lung); L132, 100 nM
  Percentage cytotoxicity: 27.8 ± 2.1%
L132 (Lung); L132, 1 μM
  Percentage cytotoxicity: 22.4 ± 1.8%
